Measurements as given in patent US10745400B2, “Inhibition of BMP signaling, compounds, compositions and uses thereof” (Vanderbilt University, priority 2018, dated 2020).
Positions count from the first letter of the chain named.

How the values were obtained:
caALK1 = caALK1 (Homo sapiens, UniProt P37023); test: Subtype analysis, constitutively active caALK1; type: cell-based; settings: Primary In Vitro Data, constitutively active ALK1
ALK3/BMPR1A = ALK3/BMPR1A (Homo sapiens, UniProt P36894); test: Kinase assay (33P-ATP filter-binding), ALK3; type: biochemical; settings: 1 mM; read-out: Kinase Selectivity ALK3/BMPR1A (1 mM)
Sequence of ALK3/BMPR1A (P36894 24-532): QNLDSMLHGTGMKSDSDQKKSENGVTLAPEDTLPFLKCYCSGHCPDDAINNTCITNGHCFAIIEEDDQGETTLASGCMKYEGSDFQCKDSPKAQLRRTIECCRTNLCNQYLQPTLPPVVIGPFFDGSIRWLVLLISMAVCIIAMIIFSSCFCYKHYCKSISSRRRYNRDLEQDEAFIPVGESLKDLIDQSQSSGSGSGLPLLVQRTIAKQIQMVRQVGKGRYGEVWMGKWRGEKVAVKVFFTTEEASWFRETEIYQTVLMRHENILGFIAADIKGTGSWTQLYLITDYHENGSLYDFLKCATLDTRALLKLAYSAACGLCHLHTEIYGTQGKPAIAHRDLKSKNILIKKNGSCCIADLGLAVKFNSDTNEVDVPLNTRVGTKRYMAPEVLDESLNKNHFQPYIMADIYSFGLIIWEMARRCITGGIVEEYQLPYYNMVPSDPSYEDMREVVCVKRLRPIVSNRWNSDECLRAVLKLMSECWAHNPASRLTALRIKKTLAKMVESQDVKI
Procedure, shortened: (§1)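 Radiometric 33P-ATP turnover captured on P81 paper following a 2 h room-temperature reaction. Compounds were preincubated with enzyme and substrate for 20 min in pH 7.5 Hepes buffer containing 1% DMSO.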

ALK2/ACVR1 = molecular target: T1, ALK2/ACVR1 (Homo sapiens, UniProt Q04771); test: Kinase assay (33P-ATP filter-binding), ALK2; type: biochemical; settings: 20 mM; read-out: Kinase Selectivity ALK2/ACVR1 (20 mM)
T1 sequence (Q04771 21-509): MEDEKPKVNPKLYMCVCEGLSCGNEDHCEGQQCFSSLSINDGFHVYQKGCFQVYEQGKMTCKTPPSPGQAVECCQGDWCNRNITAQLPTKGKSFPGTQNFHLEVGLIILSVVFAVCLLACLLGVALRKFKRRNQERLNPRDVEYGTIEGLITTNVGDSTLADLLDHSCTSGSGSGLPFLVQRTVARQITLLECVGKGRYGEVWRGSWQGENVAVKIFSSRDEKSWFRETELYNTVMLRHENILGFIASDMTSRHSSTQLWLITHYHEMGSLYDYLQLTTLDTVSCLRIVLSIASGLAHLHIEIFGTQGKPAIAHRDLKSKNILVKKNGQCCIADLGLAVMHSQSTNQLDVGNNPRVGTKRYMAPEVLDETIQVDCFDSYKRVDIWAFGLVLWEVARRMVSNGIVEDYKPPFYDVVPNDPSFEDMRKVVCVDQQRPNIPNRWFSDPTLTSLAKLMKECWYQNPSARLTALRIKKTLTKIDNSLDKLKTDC
Experimental: (§2) The kinase assays were carried out briefly as follows. Substrate was prepared in Base Reaction Buffer (20 mM Hepes (pH 7.5), 10 mM MgCl2, 1 mM EGTA, 0.02% Brij35, 0.02 mg/ml BSA, 0.1 mM Na3VO4, 2 mM DTT, 1% DMSO). The indicated kinases was delivered into the substrate solution and allowed to gently mix. Next, the specific compound was delivered in DMSO into the kinase mixture by Acoustic technology (Echo550; nanoliter range), and allowed to incubate for 20 minutes at room temperature. Next, ^33P-ATP was delivered into the reaction mixture to initiate the reaction and allowed to incubate at room temperature. After 2 hours, the reactions were spotted onto P81 ion exchange paper and the kinase activity is detected by the filter-binding method.

ALK2 (R206H) = molecular target: T2, ALK2 (R206H) (Homo sapiens, UniProt Q04771, R206H); test: Kinase assay (33P-ATP filter-binding), ALK2 R206H; type: biochemical; settings: R206H mutant, 20 mM; read-out: Kinase Selectivity ALK2 (R206H, 20 mM)
T2 sequence (Q04771 21-509 R206H): T1 sequence (Q04771 21-509) with R186H
Experimental: as §2

ALK2 (Q207D) = molecular target: T3, ALK2 (Q207D) (Homo sapiens, UniProt Q04771, Q207D); test: Kinase assay (33P-ATP filter-binding), ALK2 Q207D; type: biochemical; settings: Q207D mutant, 20 mM; read-out: Kinase Selectivity ALK2 (Q207D, 20 mM)
T3 sequence (Q04771 21-509 Q207D): T1 sequence (Q04771 21-509) with Q187D
Experimental: as §2

caALK2 = molecular target: T4, caALK2 (Homo sapiens, UniProt Q04771, Q207D); test: Subtype analysis, C2C12BRA cells transfected with constitutively active caALK2; type: cell-based; settings: Primary In Vitro Data, constitutively active ALK2
T4 construct: expressed in transfected cells; host or cells: C2C12BRA cells (mouse myoblast, BMP-responsive reporter)
T4 sequence (Q04771 21-509 Q207D): T1 sequence (Q04771 21-509) with Q187D
Experimental: (§3) The BMP4 cell assay were carried out briefly as follows. Stably transfected BMP-responsive C2C12 mouse myoblast cells (containing the Idl promoter-firefly luciferase reporter) were seeded in 96-well plates and incubated overnight with the compounds and BMP4 (50 ng/mL). The cells were then lysed, and cell extracts were then subjected to the firefly luciferase assay using Steady-Glo luciferase assay kit (Promega). The results were normalized to cell titers, as measured using Cell Titer-Glo luminescence assay (Promega). For subtype analysis, C2C12BRA cells were transiently transfected with plasmids (0.1 μg) expressing constitutively active forms of the BMP type I receptors (caALK2, caALK3 or caALK6) using Lipofectamine kit (Invitrogen) in 96 well plates; 0.1 μg of pRL-TK Renilla luciferase (Promega) was used to control for transfection efficiency. Relative activity was quantified by the ratio of firefly to Renilla luciferase activities using the dual luciferase assay kit (Promega).

ALK1/ACVRL1 = ALK1/ACVRL1 (Homo sapiens, UniProt P37023); test: Kinase assay (33P-ATP filter-binding), ALK1; type: biochemical; settings: read-out: Kinase Selectivity ALK1/ACVRL1
Sequence of ALK1/ACVRL1 (P37023 22-503): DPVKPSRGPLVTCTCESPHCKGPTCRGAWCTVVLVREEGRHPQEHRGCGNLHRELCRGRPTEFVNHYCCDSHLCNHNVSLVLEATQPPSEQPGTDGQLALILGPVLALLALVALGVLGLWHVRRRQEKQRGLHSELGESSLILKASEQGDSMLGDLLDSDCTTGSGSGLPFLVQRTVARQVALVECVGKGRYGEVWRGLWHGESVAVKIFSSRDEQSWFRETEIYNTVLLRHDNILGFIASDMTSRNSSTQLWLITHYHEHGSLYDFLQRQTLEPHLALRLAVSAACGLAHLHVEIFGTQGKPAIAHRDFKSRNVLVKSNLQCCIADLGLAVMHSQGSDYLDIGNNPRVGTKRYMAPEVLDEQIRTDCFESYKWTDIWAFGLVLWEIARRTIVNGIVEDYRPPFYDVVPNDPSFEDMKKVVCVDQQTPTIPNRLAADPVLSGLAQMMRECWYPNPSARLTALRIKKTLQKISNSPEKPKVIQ
Procedure, shortened: as §1

[1] = system: BMP-responsive C2C12 mouse myoblast cells stimulated with BMP4; test: BMP4 cell assay (Id1 promoter-firefly luciferase reporter); type: cell-based; settings: Mus musculus; C2C12 cells, BMP4 50 ng/mL, overnight
Experimental: as §3, with “For subtype analysis, C2C12BRA cells were transiently transfected with plasmids (0.1 μg) expressing constitutively active forms of the BMP type I receptors (caALK2, caALK3 or caALK6) using Lipofectamine kit (Invitrogen) in 96 well plates; 0.1 μg of pRL-TK Renilla luciferase (Promega) was used to control for transfection efficiency.” left out

Sequence of caALK1 (P37023 whole entry Q201D, form open): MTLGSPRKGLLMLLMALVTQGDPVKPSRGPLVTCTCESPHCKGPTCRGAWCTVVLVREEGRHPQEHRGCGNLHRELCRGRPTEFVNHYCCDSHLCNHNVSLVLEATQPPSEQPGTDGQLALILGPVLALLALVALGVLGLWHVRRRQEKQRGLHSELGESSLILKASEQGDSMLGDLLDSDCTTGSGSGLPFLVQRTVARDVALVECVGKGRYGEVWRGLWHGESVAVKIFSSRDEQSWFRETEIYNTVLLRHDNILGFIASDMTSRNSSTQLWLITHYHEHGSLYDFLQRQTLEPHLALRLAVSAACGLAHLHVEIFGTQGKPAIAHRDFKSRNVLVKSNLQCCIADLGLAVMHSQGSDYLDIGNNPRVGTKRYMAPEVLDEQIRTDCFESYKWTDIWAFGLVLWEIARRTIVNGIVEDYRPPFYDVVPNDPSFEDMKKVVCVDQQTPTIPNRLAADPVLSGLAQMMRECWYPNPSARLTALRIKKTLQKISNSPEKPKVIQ

| SMILES | IC50 (caALK1) | IC50 (ALK3/BMPR1A) | IC50 (ALK2/ACVR1) | IC50 (ALK2 (R206H)) | IC50 (ALK2 (Q207D)) | IC50 (caALK2) | IC50 (ALK1/ACVRL1) | IC50 [1] |
| --- | --- | --- | --- | --- | --- | --- | --- | --- |
| Cc1cc(-c2cnc3cc(-c4ccc(N5CCN(C)CC5)cc4)ccn23)c2cccnc2n1 [Compound 28] | 189 nM | < 5.08 nM | 114 nM | 105 nM | 79.1 nM | 44 nM | 1200 nM | 66 nM |
| CN1CCN(c2ccc(-c3ccn4c(-c5ccnc6ncccc56)cnc4c3)cc2)CC1 [Compound 29] | 178 nM | 17.4 nM | 84.9 nM | 88.2 nM | 77.6 nM | 16 nM | 767 nM | 112 nM |
